Tests used:
Format in all cases: cell-based, human
[1] = system: CD34+ HSPCs; test: lentiviral-based pooled functional screen of i53 variant libraries at the HBB locus; NGS enrichment in mCherry+GFP+ vs mCherry+GFP- cells; conditions: MOI=2500
Description: CD34+ HSPC cells were transduced using lentivirus at MOIs of 0.25-1 at day 1 post thaw. Cells were concentrated using centrifugation (180 g×7 min), counted, and added at a concentration of 4×10^6 cells/mL to media containing lentivirus, cyclosporin A (5 μM, Sigma Aldrich) and Synperonic F108 (0.5 mg/mL, Sigma Aldrich). After 4 h of incubation, cells were spun down, washed once with media, and seeded into lentivirus-free media at a density of 3.5×10^5 cells/mL.
Chemically-modified single guide RNAs (sgRNAs) used to edit CD34+ HSPCs at the HBB locus were purchased from Synthego. […] Cells were collected, counted, and pelleted at 180 g×7 min. […]
Three days after transduction, cells were edited in triplicate or quadruplet at HBB as described above, using HBB-UBB-GFP donor AAV6 (MOI of 2.5×10^4 vector genomes/cell). […] The DNA concentration of each sample was measured using a Qubit 1×dsDNA BR assay kit (ThermoFisher).
An amplicon sequencing workflow was designed to sequence and quantify i53 variants within starting and post selection pools. […]
This approach was used to confirm sequence diversity in plasmid and lentiviral libraries prior to screening. For screening data analyses, a first quality control was performed on all runs to validate good values in number of mapped reads (>1e5 reads per sample), percent reads carried over from parent (from cloning), and overall distribution of sequences (no bias). […]

[2] = system: CD34+ HSPCs; test: GFP knock-in at the CCR5 locus with purified i53 variants and CCR5-UBC-GFP AAV; flow cytometry; conditions: CCR5 locus; protein 0.4 mg/mL; MOIs 625 and 2500; both donors
Description: (§1) Chemically-modified single guide RNAs (sgRNAs) were used to edit CD34+ HSPCs at the HBA, CCR5, and IL2RG loci. The sgRNA sequences were modified by adding 2′-O-methyl-3′-phosphorothioate at the three terminal nucleotides of the 5′ and 3′ ends. The target sequences for the HBA, CCR5, and IL2RG sgRNA are as follows: HBA: 5′-[…]-3′ (SEQ ID NO: 78), CCR5: 5′-[…]-3′ (SEQ ID NO: 79) IL2RG: 5′-[…]-3′ (SEQ ID NO: 80). Cas9 protein (SpyFi Cas9) was purchased from Aldevron. The RNPs were complexed at a Cas9:sgRNA molar ratio of 1:2.5 at 25° C. for 10-15 min prior to electroporation. Cells were collected, counted, and pelleted at 180 g×7 min. The cell pellets were resuspended in Maxcyte buffer with complexed RNPs and electroporated using a Maxcyte EXPERT ATx Nucleofector. After electroporation cells were plated at 3.5×10^5 cells/mL in media supplemented with cytokines and the desired AAV donor added at 5.0×10^2-2.5×10^4 vector genomes/cell. 24 h after nucleofection, cells were spun down, washed once with media, and seeded into AAV-free media at a density of 3.5×10^5 cells/mL. […]
(§2) Rates of targeted integration of the HBA-UBC-GFP, CCR5-UBC-GFP, and IL2RG-UBC-GFP donors were measured using a Beckman Coulter CytoFLEX. […] Flow cytometry data were analyzed using FlowJo 10 software.

[3] = system: CD34+ HSPCs; test: editing of CD34+ HSPCs with purified i53 variant proteins and HBB-UBC-GFP AAV donor; flow cytometry; conditions: HBB locus; protein 0.4 mg/mL; MOIs 625 and 2500; both donors
Description: Chemically-modified single guide RNAs (sgRNAs) used to edit CD34+ HSPCs at the HBB locus were purchased from Synthego. The sgRNA sequences were modified by adding 2′-O-methyl-3′-phosphorothioate at the three terminal nucleotides of the 5′ and 3′ ends. The target sequence for the HBB sgRNA is as follows: HBB: 5′[…]-3′ (SEQ ID NO: 74). Cas9 protein (SpyFi Cas9) was purchased from Aldevron. The RNPs were complexed at a Cas9:sgRNA molar ratio of 1:2.5 at 25° C. for 10-15 min prior to electroporation. Cells were collected, counted, and pelleted at 180 g×7 min. The cell pellets were resuspended in Maxcyte buffer with complexed RNPs and electroporated using a Maxcyte EXPERT ATx Nucleofector. After electroporation cells were plated at 3.5×10^5 cells/mL in media supplemented with cytokines and the desired AAV donor added at 5.0×10^2-2.5×10^4 vector genomes/cell. 24 h after nucleofection, cells were spun down, washed once with media, and seeded into AAV-free media at a density of 3.5×10^5 cells/mL.
CD34+ HPSCs were edited with protein variants 3 days post thaw and were harvested 2 days post nucleofection for NGS analysis or 3-5 days post nucleofection for GFP expression analysis. Editing reactions with proteins at a given concentration were repeated in duplicate or triplicate (either using the same CD34+ HSPC donor or across multiple donors).
Rates of targeted integration of the HBB UBC GFP donor were measured using a Beckman Coulter CytoFLEX. DAPI (Miltenyi Biotec) was used to discriminate live and dead cells. Flow cytometry data were analyzed using FlowJo 10 software.

[4] = system: CD34+ HSPCs; test: GFP knock-in at the IL2RG locus with purified i53 variants and IL2RG-UBC-GFP AAV; flow cytometry; conditions: protein 0.4 mg/mL, MOIs 625 and 2500, both donors
Description: as §1, §2

[5] = system: CD34+ HSPCs; test: GFP knock-in at the HBA locus with purified i53 variants and HBA-UBC-GFP AAV; flow cytometry; conditions: HBA locus; protein 0.4 mg/mL; MOIs 625 and 2500; both donors
Description: as §1, §2

Row | Substance | differential variant enrichment in the mCherry+GFP+ population relative to parent L67H ([1]; combinatorial library at positions 12 and 14, iterating on L67H) | % GFP incorporation relative to the no protein control [2] | % GFP incorporation relative to the no protein control [3] | % GFP incorporation relative to the no protein control [4] | % GFP incorporation relative to the no protein control [5] | differential variant enrichment in the mCherry+GFP+ population relative to parent L67R ([1]; combinatorial library at positions 12 and 14, parent L67R)
1 | T12V.T14H.L67H: purified hit mutant of i53 | emerged as hits relative to parent L67H | increase % GFP incorporation relative to the no protein control | increase % GFP incorporation relative to the no protein control | increase % GFP incorporation relative to the no protein control | increase % GFP incorporation relative to the no protein control | 
2 | T12Y.T14E.L67R: purified hit mutant of i53 |  | increase % GFP incorporation relative to the no protein control | increase % GFP incorporation relative to the no protein control | increase % GFP incorporation relative to the no protein control | increase % GFP incorporation relative to the no protein control | particularly beneficial to HDR levels at HBB relative to parent T12 T14 L67R

Reference: patent US20260207777A1, “IMPROVED PEPTIDE INHIBITORS OF P53 BINDING PROTEIN 53BP1” (KAMAU THERAPEUTICS, INC., priority 2022, published 2026)
